# In publication PMC4708625 (Free Radical Biology & Medicine, 2016):
# B1: Carboxylesterase 1 isoform b (Ces1b) (Homo sapiens) (protein)
# chain: GHPSSPPVVDTVHGKVLGKFVSLEGFAQPVAIFLGIPFAKPPLGPLRFTPPQPAEPWSFVKNATSYPPMCTQDPKAGQLLSELFTNRKENIPLKLSEDCLYLNIYTPADLTKKNRLPVMVWIHGGGLMVGAASTYDGLALAAHENVVVVTIQYRLGIWGFFSTGDEHSRGNWGHLDQVAALRWVQDNIASFGGNPGSVTIFGESAGGESVSVLVLSPLAKNLFHRAISESGVALTSVLVKKGDVKPLAEQIAITAGCKTTTSAVMVHCLRQKTEEELLETTLKMKFLSLDLQGDPRESQPLLGTVIDGMLLLKTPEELQAERNFHTVPYMVGINKQEFGWLIPMQLMSYPLSEGQLDQKTAMSLLWKSYPLVCIAKELIPEATEKYLGGTDDTVKKKDLFLDLIADVMFGVPSVIVARNHRDAGAPTYMYEFQYRPSFSSDMKPKTVIGDHGDELFSVFGAPFLKEGASEEEIRLSKMVMKFWANFARNGNPNGEGLPHWPEYNQKEGYLQIGANTQAAQKLKDKEVAFWTNLFAKKAVEKPPQTEHIEL
# Columns and labels:
# [1] = target: T1, Carboxylesterase 1 isoform b (Ces1b) (Homo sapiens, UniProt P23141); assay: dose response of Amplex Red to resorufin conversion by recombinant Ces1b (fluorescence); format: biochemical
# T1 construct: gene CES1
# T1 sequence (P23141 18-567): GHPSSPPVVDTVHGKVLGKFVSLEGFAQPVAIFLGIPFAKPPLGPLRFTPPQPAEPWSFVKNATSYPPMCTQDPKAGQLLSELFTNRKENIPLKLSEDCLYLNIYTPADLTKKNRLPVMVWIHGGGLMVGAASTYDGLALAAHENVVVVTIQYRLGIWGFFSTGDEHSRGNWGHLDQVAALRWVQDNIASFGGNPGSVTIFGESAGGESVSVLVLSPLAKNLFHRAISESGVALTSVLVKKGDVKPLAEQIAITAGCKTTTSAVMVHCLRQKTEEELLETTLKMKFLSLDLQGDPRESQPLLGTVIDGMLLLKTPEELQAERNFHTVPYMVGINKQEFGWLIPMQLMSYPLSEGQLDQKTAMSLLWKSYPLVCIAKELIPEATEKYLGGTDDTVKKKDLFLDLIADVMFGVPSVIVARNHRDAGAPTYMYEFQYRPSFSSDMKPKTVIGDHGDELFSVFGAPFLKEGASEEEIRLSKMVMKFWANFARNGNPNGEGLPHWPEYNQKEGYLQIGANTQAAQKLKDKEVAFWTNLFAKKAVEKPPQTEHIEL
# [2] = target: T1, Carboxylesterase 1 isoform b (Ces1b); assay: inhibition of Amplex Red to resorufin conversion by recombinant Ces1b (fluorescence); format: biochemical
# [3] = target: T1, Carboxylesterase 1 isoform b (Ces1b); assay: biochemical; details: read-out: % inhibition at 100 μM
# purified protein = substrate: CC(=O)N1c2ccc(O)cc2Oc2cc(O)ccc21; assay: purified protein; details: docking: carbonyl carbon near Ser221, carbonyl oxygen in oxyanion hole of Gly142 and Gly143
molecule,measurement,setting,value
"O=S(=O)(F)Cc1ccccc1 [PMSF, Phenylmethyl sulfonyl fluoride]",IC50,[1],~5000 nM
"O=[N+]([O-])c1ccc(OP(=O)(O)Oc2ccc([N+](=O)[O-])cc2)cc1 [BNPP, bis(4-nitrophenyl)phosphate]",IC50,[2],~150 nM
"CN(C)C(=O)C(CCN1CCC(O)(c2ccc(Cl)cc2)CC1)(c1ccccc1)c1ccccc1 [LPM, Loperamide]",inhibition at 100 µM,[3],~50%
B1,Km,purified protein,55 ± 12 µM
